These compounds were tested against unphosphorylated-BTK kinase domain (UP-BTK), GST-tagged human BTK (389-659aa) (Homo sapiens (Human), UniProt Q06187) (assay: BTK Kinase Lanthascreen Binding Assay). Settings: compound, 50 nM Tracer 236, 2 nM anti-GST antibody, 60 minutes; pIC50 = negative log of the IC50 in molar.
Experimental: BTK Kinase Lanthascreen Binding Assay:
A BTK kinase lanthascreen binding assay monitors compound binding to unphosphorylated-BTK kinase domain (UP-BTK), by competing with a fluorescent labeled tracer. […] Data were analyzed using Xlfit™ version 5.3 from ID Business Solutions (Guildford), Microsoft Excel add-in. pIC50 refers to the negative log of the IC50 in molar.

Chain of unphosphorylated-BTK kinase domain (UP-BTK), GST-tagged human BTK (389-659aa) (Q06187 389-659): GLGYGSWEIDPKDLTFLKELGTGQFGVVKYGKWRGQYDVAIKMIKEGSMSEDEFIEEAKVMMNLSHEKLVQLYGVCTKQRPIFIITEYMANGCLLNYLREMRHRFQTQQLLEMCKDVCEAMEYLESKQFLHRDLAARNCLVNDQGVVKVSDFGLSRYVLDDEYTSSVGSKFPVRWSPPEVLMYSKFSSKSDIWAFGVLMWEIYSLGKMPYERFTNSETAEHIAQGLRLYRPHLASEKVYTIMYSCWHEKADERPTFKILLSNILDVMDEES

Point of comparison: `N[C@H]1CCCC[C@H]1NC(=O)c1sc2nccc3c2c1NC(=O)N3c1ccc(Oc2ccccc2)cc1` [Example 126, N-((1R,2S)-2-Aminocyclohexyl)-4-oxo-5-(4-phenoxyphenyl)-4,5-dihydro-3H-1-thia-3,5,8-triazaacenaphthylene-2-carboxamide], “BTK_I_binding pIC50” value 7.13. Against it:
- C=CC(=O)N[C@H]1CC[C@@H](NC(=O)c2sc3nccc4c3c2NC(=O)N4c2ccc(Oc3ccccc3)cc2)CC1 [Example 119, N-((1S,4S)-4-Acrylamidocyclohexyl)-4-oxo-5-(4-phenoxyphenyl)-4,5-dihydro-3H-1-thia-3,5,8-triazaacenaphthylene-2-carboxamide] — higher, 7.61
- C=CC(=O)N[C@H]1CC[C@@H](NC(=O)c2sc3nccc4c3c2NC(=O)N4c2ccc(Oc3ccccc3)cc2)C1 [Example 121, N-((1R,3S)-3-Acrylamidocyclopentyl)-4-oxo-5-(4-phenoxyphenyl)-4,5-dihydro-3H-1-thia-3,5,8-triazaacenaphthylene-2-carboxamide] — lower, 6.57
- C=CC(=O)N[C@@H]1CCCC[C@@H]1NC(=O)c1sc2nccc3c2c1NC(=O)N3c1ccc(Oc2ccccc2)cc1 [Example 124, N-((1S,2R)-2-Acrylamidocyclohexyl)-4-oxo-5-(4-phenoxyphenyl)-4,5-dihydro-3H-1-thia-3,5,8-triazaacenaphthylene-2-carboxamide] — lower, 6.71
- C=CC(=O)N[C@@H]1CCC[C@@H]1NC(=O)c1sc2nccc3c2c1NC(=O)N3c1ccc(Oc2ccccc2)cc1 [Example 127, N-((1S,2R)-2-Acrylamidocyclopentyl)-4-oxo-5-(4-phenoxyphenyl)-4,5-dihydro-3H-1-thia-3,5,8-triazaacenaphthylene-2-carboxamide] — lower, 6.56
- N[C@H]1CCCC[C@H]1NC(=O)c1sc2nccc3c2c1NC(=O)N3c1ccc(Oc2ccccc2)c(Cl)c1 [Example 137, N-((1R,2S)-2-Aminocyclohexyl)-5-(3-chloro-4-phenoxyphenyl)-4-oxo-4,5-dihydro-3H-1-thia-3,5,8-triazaacenaphthylene-2-carboxamide] — higher, 7.49
- O=C(N[C@@H]1CCC[C@@H](O)C1)c1sc2nccc3c2c1NC(=O)N3c1ccc(Oc2ccccc2)cc1 [Example 139, N-((1R,3R)-3-Hydroxycyclohexyl)-4-oxo-5-(4-phenoxyphenyl)-4,5-dihydro-3H-1-thia-3,5,8-triazaacenaphthylene-2-carboxamide] — within 0.2 log units, 7.23
- O=C(N[C@@H]1CCC[C@@H]1O)c1sc2nccc3c2c1NC(=O)N3c1ccc(Oc2ccccc2)cc1 [Example 140, N-((1R,2S)-2-Hydroxycyclopentyl)-4-oxo-5-(4-phenoxyphenyl)-4,5-dihydro-3H-1-thia-3,5,8-triazaacenaphthylene-2-carboxamide] — within 0.2 log units, 7.15
- N[C@H]1CCCC[C@H]1NC(=O)c1sc2nccc3c2c1NC(=O)N3c1cccc(-c2ccccc2)c1 [Example 141, 5-([1,1′-Biphenyl]-3-yl)-N-((1R,2S)-2-aminocyclohexyl)-4-oxo-4,5-dihydro-3H-1-thia-3,5,8-triazaacenaphthylene-2-carboxamide] — within 0.2 log units, 7.01
- O=C(N[C@@H]1CCC[C@H](O)C1)c1sc2nccc3c2c1NC(=O)N3c1ccc(Oc2ccccc2)cc1 [Example 142, N-((1R,3S)-3-Hydroxycyclohexyl)-4-oxo-5-(4-phenoxyphenyl)-4,5-dihydro-3H-1-thia-3,5,8-triazaacenaphthylene-2-carboxamide] — lower, 6.87
- O=C(N[C@H]1CCC[C@H](O)C1)c1sc2nccc3c2c1NC(=O)N3c1ccc(Oc2ccccc2)cc1 [Example 143, N-((1S,3S)-3-Hydroxycyclohexyl)-4-oxo-5-(4-phenoxyphenyl)-4,5-dihydro-3H-1-thia-3,5,8-triazaacenaphthylene-2-carboxamide] — lower, 6.75
- O=C(N[C@@H]1CCC[C@H]1O)c1sc2nccc3c2c1NC(=O)N3c1cccc(-c2ccccc2)c1 [Example 144, 5-([1,1′-Biphenyl]-3-yl)-N-((1R,2R)-2-hydroxycyclopentyl)-4-oxo-4,5-dihydro-3H-1-thia-3,5,8-triazaacenaphthylene-2-carboxamide] — lower, 6.69
- N[C@H]1CC[C@@H](NC(=O)c2sc3nccc4c3c2NC(=O)N4c2ccc(Oc3ccccc3)cc2)CC1 [Example 145, N-((1S,4S)-4-Aminocyclohexyl)-4-oxo-5-(4-phenoxyphenyl)-4,5-dihydro-3H-1-thia-3,5,8-triazaacenaphthylene-2-carboxamide] — lower, 6.69
- N[C@H]1CC[C@H](NC(=O)c2sc3nccc4c3c2NC(=O)N4c2ccc(Oc3ccccc3)cc2)CC1 [Example 146, N-(trans-(1R,4R)-4-Aminocyclohexyl)-4-oxo-5-(4-phenoxyphenyl)-4,5-dihydro-3H-1-thia-3,5,8-triazaacenaphthylene-2-carboxamide] — lower, 6.66
- N[C@H]1CCC[C@@H]1NC(=O)c1sc2nccc3c2c1NC(=O)N3c1ccc(Oc2ccccc2)cc1 [Example 148, N-((1S,2S)-2-Aminocyclopentyl)-4-oxo-5-(4-phenoxyphenyl)-4,5-dihydro-3H-1-thia-3,5,8-triazaacenaphthylene-2-carboxamide] — lower, 6.47
- N[C@@H]1CCCC[C@H]1NC(=O)c1sc2nccc3c2c1NC(=O)N3c1ccc(Oc2ccccc2)cc1 [Example 149, N-((1R,2R)-2-Aminocyclohexyl)-4-oxo-5-(4-phenoxyphenyl)-4,5-dihydro-3H-1-thia-3,5,8-triazaacenaphthylene-2-carboxamide] — lower, 6.45
- CC(C)(C)OC(=O)N[C@@H]1CC[C@H](NC(=O)c2sc3nccc4c3c2NC(=O)N4c2ccc(Oc3ccccc3)cc2)C1 [Example 150, tert-Butyl ((1R,3S)-3-(4-oxo-5-(4-phenoxyphenyl)-4,5-dihydro-3H-1-thia-3,5,8-triazaacenaphthylene-2-carboxamido)cyclopentyl)carbamate] — lower, 6.40
- CC(C)(C)OC(=O)N[C@H]1CC[C@H](NC(=O)c2sc3nccc4c3c2NC(=O)N4c2ccc(Oc3ccccc3)cc2)CC1 [Example 151, tert-Butyl trans-((1R,4R)-4-(4-oxo-5-(4-phenoxyphenyl)-4,5-dihydro-3H-1-thia-3,5,8-triazaacenaphthylene-2-carboxamido)cyclohexyl)carbamate] — lower, 6.33
- O=C(NCC1(O)CCCCC1)c1sc2nccc3c2c1NC(=O)N3c1ccc(Oc2ccccc2)cc1 [Example 152, N-((1-Hydroxycyclohexyl)methyl)-4-oxo-5-(4-phenoxyphenyl)-4,5-dihydro-3H-1-thia-3,5,8-triazaacenaphthylene-2-carboxamide] — lower, 6.25
- Cc1cc(OC(C)C)ccc1N1C(=O)Nc2c(C(=O)N[C@H]3CC[C@@H](NC(=O)/C=C/CN(C)C)C3)sc3nccc1c23 [Example 153, N-((1S,3R)-3-((E)-4-(Dimethylamino)but-2-enamido)cyclopentyl)-5-(4-isopropoxy-2-methylphenyl)-4-oxo-4,5-dihydro-3H-1-thia-3,5,8-triazaacenaphthylene-2-carboxamide] — lower, 6.44
- O=C(N[C@H]1CCC[C@@H](O)C1)c1sc2nccc3c2c1NC(=O)N3c1ccc(Oc2ccccc2)cc1 [Example 157, N-((1S,3R)-3-Hydroxycyclohexyl)-4-oxo-5-(4-phenoxyphenyl)-4,5-dihydro-3H-1-thia-3,5,8-triazaacenaphthylene-2-carboxamide] — lower, 6.19
- Cc1cc(OC(C)C)ccc1N1C(=O)Nc2c(C(=O)N[C@H]3CC[C@@H](NC(=O)CN(C)C)C3)sc3nccc1c23 [Example 158, N-((1S,3R)-3-(2-(Dimethylamino)acetamido)cyclopentyl)-5-(4-isopropoxy-2-methylphenyl)-4-oxo-4,5-dihydro-3H-1-thia-3,5,8-triazaacenaphthylene-2-carboxamide] — lower, 6.11
- CC(C)(C)OC(=O)N[C@H]1CC[C@@H](NC(=O)c2sc3nccc4c3c2NC(=O)N4c2ccc(Oc3ccccc3)cc2)CC1 [Example 163, tert-Butyl ((1S,4S)-4-(4-oxo-5-(4-phenoxyphenyl)-4,5-dihydro-3H-1-thia-3,5,8-triazaacenaphthylene-2-carboxamido)cyclohexyl)carbamate] — lower, 5.43
- N[C@@H]1CC[C@H](NC(=O)c2sc3nccc4c3c2NC(=O)N4c2ccc(Oc3ccccc3)cc2)C1 [Example 164, N-((1S,3R)-3-Aminocyclopentyl)-4-oxo-5-(4-phenoxyphenyl)-4,5-dihydro-3H-1-thia-3,5,8-triazaacenaphthylene-2-carboxamide] — lower, 5.19

Same assay, conditions: read-out: BTK_I_binding pIC50 (converted)

`CCC(=O)N[C@@H]1CCC[C@@H]1NC(=O)c1sc2nccc3c2c1NC(=O)N3c1ccnc(-c2ccccc2)c1` [Example 159, 4-Oxo-5-(2-phenylpyridin-4-yl)-N-((1S,2R)-2-propionamidocyclopentyl)-4,5-dihydro-3H-1-thia-3,5,8-triazaacenaphthylene-2-carboxamide] and `Cc1cc(OC(C)C)ccc1N1C(=O)Nc2c(C(=O)N[C@@H]3CCCC[C@@H]3N)sc3nccc1c23` [Example 160, N-((1R,2S)-2-Aminocyclohexyl)-5-(4-isopropoxy-2-methylphenyl)-4-oxo-4,5-dihydro-3H-1-thia-3,5,8-triazaacenaphthylene-2-carboxamide] cannot be ordered by IC50: > 1000 nM for the first, > 1000 nM for the second.

`CNCC(=O)N[C@@H]1CC[C@H](NC(=O)c2sc3nccc4c3c2NC(=O)N4c2ccc(OC(C)C)cc2C)C1` [Example 161, 5-(4-Isopropoxy-2-methylphenyl)-N-((1S,3R)-3-(2-(methylamino)acetamido)cyclopentyl)-4-oxo-4,5-dihydro-3H-1-thia-3,5,8-triazaacenaphthylene-2-carboxamide] was tested, and the IC50 was > 1000 nM.

From US10934310B2, “Inhibitors of Bruton's tyrosine kinase and method of their use” (JANSSEN PHARMACEUTICA NV, priority 2015, dated 2021)
